Results from patent US10125358B2, “Methods and compounds for increasing threonyl-tRNA synthetase activity” (UNIVERSITY OF VERMONT AND STATE AGRICULTURAL COLLEGE, priority 2012, dated 2018).
Substitutions are numbered along the chain they refer to. In names and notes the source's numbering stands. Entries after “also recorded” stand apart in the source; their conditions may differ.

Columns and labels:
HUVECs = experiment: Quantitative RT-PCR of TARS mRNA; type: cell-based, human; settings: HUVECs exposed to 50 ng/ml
Procedure: Total RNA was extracted from cells using the RNeasy column protocol and cDNA was generated using an Omniscript reverse transcriptase assay according to the manufacturer's instructions (Qiagen, Frederick, Md.). Primers and probes for TARS and β2-microglobulin were Assays-on-Demand (Applied Biosystems, [Life Technologies, Carlsbad, Calif.]). RT-qPCR was performed using an ABI prism 7700 Sequence Detection System (Applied Biosystems). The relative quantity of mRNA level was determined using the comparative CT (ΔΔCT) method using β2-microglobulin to normalize mRNA level (Cassavaugh, Hale et al. 2011).

SKOV-3 cells = experiment: HIF-1α stabilization in hypoxia (Western blot); type: cell-based; settings: for HIF-1α protein stabilization: hypoxia (2% O2), 6 h
Procedure: After treatments, cells were harvested into sample buffer containing: 0.2 M Tris-HCL, 4% SDS, 4% β-mercaptoethanol, 40% glycerol, 4 μM pyronin Y. Extracts were sheared through a 24-gauge syringe. Samples were separated by 10% SDS-PAGE and transferred to nitrocellulose membrane and probed with rabbit polyclonal anti-TARS (1:500; Santa Cruz Biotechnology, Dallas, Tex.) or monoclonal anti-HIF-1α (BD Transduction Laboratories, [BD Biosciences, San Jose, Calif.]) (Lounsbury, Beddow et al. 1994). Secondary antibodies were HRP-goat-anti-mouse and HRP-goat-anti-rabbit (1:5,000; Jackson Laboratories, Bar Harbor, Me.).

TARS [1] = biological target: T1, TARS (Homo sapiens, UniProt P26639); experiment: Ki of borrelidin compounds for TARS; type: biochemical; settings: calculated; data not shown
T1 sequence (P26639 1-723): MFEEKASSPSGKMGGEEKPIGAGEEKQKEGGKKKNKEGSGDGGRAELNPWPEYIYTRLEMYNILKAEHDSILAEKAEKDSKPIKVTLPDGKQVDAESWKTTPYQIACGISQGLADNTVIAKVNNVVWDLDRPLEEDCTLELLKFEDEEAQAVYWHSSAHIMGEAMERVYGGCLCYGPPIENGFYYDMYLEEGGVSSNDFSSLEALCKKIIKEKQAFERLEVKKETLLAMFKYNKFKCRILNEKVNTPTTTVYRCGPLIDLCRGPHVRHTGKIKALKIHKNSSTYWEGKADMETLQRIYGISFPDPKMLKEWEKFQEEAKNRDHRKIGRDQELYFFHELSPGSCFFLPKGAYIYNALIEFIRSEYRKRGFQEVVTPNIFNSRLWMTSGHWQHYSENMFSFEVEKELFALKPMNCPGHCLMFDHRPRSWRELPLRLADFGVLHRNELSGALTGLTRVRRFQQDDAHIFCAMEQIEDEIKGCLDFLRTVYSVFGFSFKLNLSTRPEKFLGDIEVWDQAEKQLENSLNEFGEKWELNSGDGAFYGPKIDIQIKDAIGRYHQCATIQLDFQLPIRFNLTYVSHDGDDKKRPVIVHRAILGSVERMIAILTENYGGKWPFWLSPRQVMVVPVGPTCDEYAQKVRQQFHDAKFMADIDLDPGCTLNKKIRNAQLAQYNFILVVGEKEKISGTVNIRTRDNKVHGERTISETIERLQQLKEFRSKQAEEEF

TARS [2] = biological target: T1, TARS; experiment: Ap4A formation assay (TLC, [α-32P]-ATP); type: biochemical; parameters: His6 (N); made in house; host or cells: E. coli Rosetta 2 (DE3)pLysS, plasmid pET28a hctThrRS; settings: for Ap4A production rate: 5 μM enzyme, 2 mM threonine, 2 mM ATP
TARS [3] = biological target: T1, TARS; experiment: Ap4G formation assay (TLC, [α-32P]-GTP); type: biochemical; parameters: His6 (N); made in house; host or cells: E. coli Rosetta 2 (DE3)pLysS, plasmid pET28a hctThrRS; settings: for Ap4G formation rate: 2 mM ATP, 2 mM threonine, 2 mM GTP
TARS [4] = biological target: T1, TARS; experiment: GTPase (GTP hydrolysis) assay; type: biochemical; parameters: His6 (N); made in house; host or cells: E. coli Rosetta 2 (DE3)pLysS, plasmid pET28a hctThrRS
[5] = tested on: chorioallantoic membrane (CAM) of chicken embryos; experiment: Chick chorioallantoic membrane (CAM) assay; type: in vivo; settings: for CAM vessel formation / vascularity, effect of applied synthetase: purified protein applied daily to gelfoam sponge, 72 h
Procedure: Chick Chorioallantoic Membrane Assay—
Fertilized chicken eggs (Sunrise Farms, Catskill, N.Y.) day 1-2 post-laying were incubated in a humidified incubator at 37° C. for 72 h. Cleaned eggs were cracked and plated in a sterile 10 cm^2 tissue culture-treated dish and incubated at 37° C. for another 7 days. On developmental day 10, 1 mm^3 sterile gelatin sponge pieces (Surgifoam®; Johnson & Johnson Wound Management, Somerville, N.J.) were placed within the outer one-third of the membrane between large vessels. […] All compounds were applied in 10 μl to the CAM every 24 h for 72 h. Images were taken using a Leica MZ6 stereomicroscope every 24 h. Compounds were scored according to a modified version of Intensity Scoring as previously described (Ribatti, Nico et al. 2006). Briefly, each experimental condition was given a blinded score from 0-5 based on the change in the extent of vessel convergence and formation in proximity to the sponge from day 0 to day 3. Total score is averaged individual experimental condition scores from at least 15 replicates.
Fertilized chicken embryos were cultured ex-ova and, starting at developmental day 10, agents were applied daily to gelfoam sponges on the CAM. Images were recorded daily over 72 h and scored blindly according to a modified version Intensity Scoring as previously described (Ribatti, Nico et al. 2006). Additional details regarding methods are provided in the Methods and Materials section of Example 1.

tRNAThr = experiment: Steady state aminoacylation assay; type: biochemical, E. coli or human; settings: purified recombinant protein
Procedure: Steady State Aminoacylation Assay—
The aminoacylation activities of the TARS constructs were determined using modifications to established procedures (Francklyn et al 2008). Briefly, reaction mixtures consisted of 20 mM Tris-HCl pH 8.0, 100 mM KCl, 10 mM MgCl2, 1 mM dithiothreitol, 2 mM ATP, 2.5 U pyrophosphatase (Roche), 80 μM threonine, 20 μM [14C]-threonine, and 5 μM of E. coli or human tRNAThr. Reactions were initiated with the addition of 0.25-0.75 μM TARS and run at 37° C. Aliquots were taken at varying time points and spotted onto Whatmann 3MM paper filters pre-soaked in 5% trichloroacetic acid (TCA). Upon completion, the filters were washed 3 times in excess TCA, once in 95% ethanol, and dried under a heating lamp. The formation of Thr-tRNAThr was detected by scintillation counter and the activity determined by linear regression of threonyl-tRNAThr formed per active site per unit time.

[6] = substrate added to GTPase reaction

TNF-α
TARS mRNA level (HUVECs): neither VEGF nor TNF-α induced an increase; also recorded: do not induce TARS transcription

VEGF
TARS mRNA level (HUVECs): neither VEGF nor TNF-α induced an increase; also recorded: do not induce TARS transcription

C[C@@H]1C[C@H](C)C[C@H](C)[C@@H](O)CC(=O)O[C@H]([C@@H]2CCC[C@H]2C(=O)O)C/C=C/C=C(/C#N)[C@H](O)[C@@H](C)C1 [borrelidin]
HIF-1α transcription (SKOV-3 cells; SK-OV3 cells responding to hypoxia): no change in HIF-1α transcription
HIF-1α protein stabilization (SKOV-3 cells): reduce HIF-1α stabilization
HIF-1α protein stabilization (SKOV-3 cells; listed as BC144): diminished the levels of HIF-1α protein stabilization
Ki (TARS [1]): 4.6 nM
Ap4A synthesis, inhibition (qualitative) (TARS [2]; human TARS, 10 μM compound): at least partially inhibited
decrease in Ap4A formation activity (TARS [2]; wildtype TARS, 10 μM compound): 59.4%
Ap4G synthesis, inhibition (qualitative) (TARS [3]; human TARS, 10 μM compound): at least partially inhibited
change of TARS GTPase activity upon treatment with inhibitor (TARS [4]; 10 μM compound): no observable change

Nc1ncnc2c1ncn2[C@@H]1O[C@H](COP(=O)(O)OP(=O)(O)OP(=O)(O)O)[C@@H](O)[C@H]1O [ATP]
decrease in TARS GTPase activity (TARS [4]; [6]): 77%

C[C@@H](O)[C@H](N)C(=O)O [threonine]
increase in TARS GTPase activity (TARS [4]; [6]): 26%

B1: L567V TARS: BC194-resistant (borrelidin-resistant) L567V mutant of human TARS (protein, listed as Homo sapiens)
chain: T1 sequence (P26639 1-723) with L567V
sensitivity of synthetase-induced CAM angiogenesis to BC194 ([5]; protein plus BC194 applied to CAM): not inhibited
CAM vessel formation / vascularity, effect of applied synthetase [5]: stimulated vessel formation
aminoacylation activity (tRNAThr): not compromised

B2: R442A TARS: aminoacylation-deficient human TARS mutant; essential catalytic arginine 442 exchanged for alanine (protein, listed as Homo sapiens)
chain: T1 sequence (P26639 1-723) with R442A
CAM vessel formation / vascularity, effect of applied synthetase [5]: virtually indistinguishable from wild type
aminoacylation activity (tRNAThr): essentially no aminoacylation activity; also recorded: virtually negligible aminoacylation function
Ap4A production rate (TARS [2]): no appreciable activity; also recorded: blocked
Ap4G formation rate (TARS [3]): not catalyzed; also recorded: blocked

B3: E. coli ThrRS: bacterial (E. coli) threonyl-tRNA synthetase (protein, UniProt P0A8M3 1-642, looked up)
Threonine--tRNA ligase: MPVITLPDGSQRHYDHAVSPMDVALDIGPGLAKACIAGRVNGELVDACDLIENDAQLSIITAKDEEGLEIIRHSCAHLLGHAIKQLWPHTKMAIGPVIDNGFYYDVDLDRTLTQEDVEALEKRMHELAEKNYDVIKKKVSWHEARETFANRGESYKVSILDENIAHDDKPGLYFHEEYVDMCRGPHVPNMRFCHHFKLMKTAGAYWRGDSNNKMLQRIYGTAWADKKALNAYLQRLEEAAKRDHRKIGKQLDLYHMQEEAPGMVFWHNDGWTIFRELEVFVRSKLKEYQYQEVKGPFMMDRVLWEKTGHWDNYKDAMFTTSSENREYCIKPMNCPGHVQIFNQGLKSYRDLPLRMAEFGSCHRNEPSGSLHGLMRVRGFTQDDAHIFCTEEQIRDEVNGCIRLVYDMYSTFGFEKIVVKLSTRPEKRIGSDEMWDRAEADLAVALEENNIPFEYQLGEGAFYGPKIEFTLYDCLDRAWQCGTVQLDFSLPSRLSASYVGEDNERKVPVMIHRAILGSMERFIGILTEEFAGFFPTWLAPVQVVIMNITDSQSEYVNELTQKLSNAGIRVKADLRNEKIGFKIREHTLRRVPYMLVCGDKEVESGKVAVRTRRGKDLGSMDVNEVIEKLQQEIRSRSLKQLEE
Ap4A production rate (TARS [2]): 0.5612 Ap4A/active site/min
Ap4G formation rate (TARS [3]): 0.5612 Ap4G/active site/min
GTP hydrolysis rate (TARS [4]; 2 mM GTP): not
